This note sets out measurements from patent US20240207329A1, “METHODS OF TREATING ADENOCARCINOMA WITH HUMAN MICROBIOTA DERIVED N-ACYL AMIDES” (ICAHN SCHOOL OF MEDICINE AT MOUNT SINAI, priority 2021, published 2024).

In general, IC50 refers to the concentration that gives 50% inhibition.

The test system of one assay is Tumor organoids. The assay is described as follows: Treatment of mouse tumor organoids with N-acyl amides, end-point viability by CellTiter-Glo. The format is cell-based, mice. The following applies: for IC50: mouse tumor organoids, viability 3 days post-drug addition, CellTiter-Glo, triplicate; for liver cancer growth and/or survival: tumor organoid dose-response curves, FIG. 7. Here is the method: Tumor organoids were prepared from the animal model described in Example 1 (i.e. tissue from control animals was isolated at 24 weeks and tumor organoids prepared therefrom). Tumor organoids were generated according to protocols known in the art (Broutier, L., Andersson-Rolf, A., Hindley, C J., Boj, S F., Clevers, H., et al., Culture and establishment of self-renewing human and mouse adult liver and pancreas 3D organoids and their genetic manipulation. Nat Protoc. 2016. 11(9): 1724-43 and Broutier, L. Mastrogiovanni, G., Verstegen, M M., Francies, H E., Gavarro, L M., et al., Human primary liver cancer-derived organoid cultures for disease modeling and drug screening. Nat Med. 2017 23(12): 1424-1435). Liver biopsies were digested in sterile PBS containing 0.125 mg/mL collagenase IV, 0.125 mg/mL dispase II, and 0.1 mg/mL DNaseI. Digestions were performed at 37° C. for at least 4 hours. Tissue dissociate was filtered through a 70 μm strainer and washed with basal media (Advanced DMEM/F12, 1% L-glutamine, 1% penstrep, 1 mM HEPES). Cells were counted, washed, and resuspended at 50,000 cells/50 μL matrigel. 50 μL matrigel droplets were plated in 24-well plates and allowed to polymerize for 15 minutes at 37° C. Tumor dissociate was cultured in tumor media (basal media, 1:50 B27, 1 mM N-acetylcysteine, 10 mM nicotinamide, 10 nM recombinant human [Leu^15]-gastrin I, 50 ng/mL recombinant murine EGF, 100 ng/mL recombinant human FGF10, and 50 ng/mL recombinant human HGF) until organoids formed. To passage, organoids were removed from matrigel in basal media, spun down at 300 g for 5 minutes, mechanically broken via passage through a 21 g needle, washed in basal media, and re-plated in matrigel.
96-wells plates were coated with a 50:50 solution of matrigel:basal media, which was allowed to polymerize for 15 minutes at 37° C. Tumor organoids were mechanically broken as described above, counted, and seeded at 1,000 cells/well in tumor media. Following overnight incubation, serial drug dilutions were added to the tumor organoids. […] End-point viability was analyzed 3-days post-drug addition using CellTiter-Glo. Each treatment was performed in triplicate.

For assay [1], the system named is Human hepatocellular cancer (HCC) organoids. Briefly: Treatment of human HCC and cholangiocarcinoma organoids, anti-tumor effects. The assay is classed as cell-based. As to conditions: triplicate. Here is the method: Human hepatocellular cancer (HCC) organoids were prepared from patients with non alcoholic steatohpepatitis (NASH), hepatitis B virus (HBV) and hepatitis C virus (HCV). The HCC organoids were generated according to protocols known in the art (Broutier, L., Andersson-Rolf, A., Hindley, C J., Boj, S F., Clevers, H., et al., Culture and establishment of self-renewing human and mouse adult liver and pancreas 3D organoids and their genetic manipulation. Nat Protoc. 2016. 11(9): 1724-43 and Broutier, L. Mastrogiovanni, G., Verstegen, M M., Francies, H E., Gavarro, L M., et al., Human primary liver cancer-derived organoid cultures for disease modeling and drug screening. Nat Med. 2017 23(12): 1424-1435). Organoids were also prepared from a single patient with cholangiocarcinoma (ICC). N-oleoyl serinol and N-oleoyl glycine were assayed for anti-tumor effects. Each treatment was performed in triplicate. […] N-oleoyl serinol was active specifically against HCCC organoids from patients with NASH.

Structures are written as SMILES. A value given as a limit tells only on which side of the number the result lay.

As to `CCCCCCCC/C=C\CCCCCCCC(=O)NCCO` [N-oleoyl ethanolamide, reference compound], the 50% inhibitory concentration (IC50) in the assay on Tumor organoids (72 h) came out at 126 nM. In addition, the “liver cancer growth and/or survival” value with Tumor organoids is listed as “inhibit or reduce”.
With `CCCCCCCC/C=C\CCCCCCCC(=O)NCC(=O)O` [N-oleoyl glycine], in assay [1] (all organoid cell lines (HCC from NASH, HBV, HCV patients; cholangiocarcinoma)), the anti-tumor effects entry is “inactive”. In the assay with Tumor organoids (72 h), this compound gave an IC50 of over 100000 nM.
For the compound `CCCCCCCC/C=C\CCCCCCCC(=O)NC(CO)CO` [N-oleoyl serinol], the anti-tumor effects result in assay [1] (HCC organoids from patients with NASH) is given as “active”. This compound came in with a half-maximal inhibitory concentration (IC50) with Tumor organoids (72 h) of 33.3 nM. In the assay with Tumor organoids, the “liver cancer growth and/or survival” value was “inhibit or reduce”.
The compound `CCCCCCCCCCCCCCCC(=O)NCC(=O)O` [N-palmitoyl glycine] had an IC50 in the assay on Tumor organoids of over 100000 nM.
`CCCCCCCCCCCCCCCC(=O)NC(CO)CO` [palmitoyl serinol] yielded a 50% inhibitory concentration (IC50) with Tumor organoids (72 h) of over 100000 nM.
